Paper PMC5882637, “Ethanol potentiates the genotoxicity of the food-derived mammary carcinogen PhIP in human estrogen receptor-positive mammary cells: mechanistic support for lifestyle factors (cooked red meat and ethanol) associated with mammary cancer” (Archives of Toxicology, 2018)

What was measured:
[1] = system: CYP1A2 mRNA expression; assay: RT-qPCR CYP1A2 mRNA, MCF-7; conditions: Fig. 2a
Procedure: (§1) Cells were cultured routinely in 75-cm^2 flasks in a humidified incubator at 37 °C, 5% CO2.
(§2) Following treatment, cells were lysed using TRIZOL reagent and chloroform (0.2 ml) was added in each sample and centrifuged 12,000xg (10 min 2–8 °C). The upper aqueous phase was transferred to a fresh tube and 5 µg of RNase-free glycogen (as carrier to aqueous phase) and 0.5 ml of isopropyl alcohol was added to precipitate RNA and incubated (37 °C, 10 min). Following incubation, lysates were centrifuged at 12,000xg (10 min 2–8 °C). The gel-like pellet was washed with ethanol and re-dissolved in RNase-free water with heating (55–60 °C). Extracted RNA was quantified by UV spectroscopy (UV–VIS Nano-spectrophotometer, Implen, Essex, UK) and purity was assessed from 260/280 nm and 260/230 nm ratios. Reverse transcription (RT) of extracted RNA (100–500 ng) was completed according to manufacturer’s protocol (Invitrogen) and qPCR was performed using predesigned Taqman gene expression assays and FAST PCR master mix (Taqman, Applied Biosystems, Life technologies) using a StepOnePlus fast real-time PCR system (Applied Biosystems, Life technologies). Target gene expression was normalized to GAPDH and quantified using the delta-Ct method (Livak and Schmittgen [2001]).

[2] = system: CYP1A2 mRNA expression; assay: RT-qPCR CYP1A2 mRNA, MDA-MB-231; conditions: Fig. 2c
Procedure: as §1, §2

[3] = system: MDA-MB-231 cells; assay: Cytotoxicity (cell counting, TrypanBlue exclusion), MDA-MB-231
Procedure: as §1
(§3) Briefly, cells were seeded at a density of 5 × 10^4 cells per well in 24-well plate. Cells were treated with PhIP or ethanol as detailed previously. Following treatment with chemicals and harvesting (48 h), cells were trypsinised, the cell concentration adjusted to 2 × 10^5 and re-suspended in serum-free R0 (serum-free media) with 2% pluronic acid medium (GIBCO, Life technologies) and cytotoxicity was determined by counting cells in a haemocytometer with TrypanBlue exclusion (GIBCO, Life technologies). For the MN assay, cells were spread on a microscope slide using a cytospin. Cells at a density of 2 × 10^4 cells per slide were fixed with 100% methanol and stained for 60 s with acridine orange (0.1 mg ml^−1 dissolved in PBS, Sigma-Aldrich). Frequency of MN was scored in 2000 cells per sample and three biological replicates were performed per treatment.

[4] = system: CYP1B1 mRNA expression; assay: RT-qPCR CYP1B1 mRNA, MCF-7; conditions: MCF-7
Procedure: as §1, §2

[5] = system: MCF-7 cells; assay: Cytotoxicity (cell counting, TrypanBlue exclusion), MCF-7
Procedure: as §1, §3

[6] = system: MDA-MB-231 cells; assay: Micronucleus (MN) assay, MDA-MB-231
Procedure: as §1, §3

[7] = system: CYP2E1 mRNA expression; assay: RT-qPCR CYP2E1 mRNA, MCF-7
Procedure: as §1
For STAT3 inhibition, cells were co-treated for 24 h with PhIP and 25 µM STAT3 inhibitor (STAT3 inhibitor VIII 5, 15 diphenylporphyrin, Millipore, Feltham, UK). STAT3 inhibitor was dissolved in DMSO. For ethanol treatment, media was supplemented with different concentrations of ethanol (10 mM-100 mM, Sigma-Aldrich) and was added to the cells. In some experiments, N-acetyl-cysteine (NAC) (10 mM, Sigma-Aldrich) diluted in phosphate-buffered saline (PBS) was added to incubations.
as §2

[8] = system: MCF-7 cells; assay: Micronucleus (MN) assay, MCF-7
Procedure: as §1, §3

[9] = system: CYP1B1 mRNA expression; assay: RT-qPCR CYP1B1 mRNA, MDA-MB-231; conditions: 24 h
Procedure: as §1, §2

[10] = system: STAT3 mRNA expression; assay: qPCR STAT3 mRNA, MCF-7; assay type: cell-based, human; conditions: co-treatment with PhIP, Fig. 4b
Procedure: as §1, §2

[11] = system: intracellular ROS in MCF-7 cells; assay: ROS assay (carboxy-DCF-DA), MCF-7; assay type: cell-based, human; conditions: ethanol 50 mM or PhIP 100 µM alone, Fig. 6c
Procedure: STAT3 inhibitor was dissolved in DMSO.
Production of reactive oxygen species (ROS) was measured using 2′,7′–dichlorofluorescein diacetate method. Carboxy-2′,7′-dichlorofluorescein diacetate (carboxy-DCF-DA) is taken up by viable cells and cleaved by endogenous esterases to the nonfluorescent derivative, reduced carboxy-dichlorofluorescein (carboxy-DCFH). This product is retained in the cytosol where it can be oxidized by intracellular ROS to the highly fluorescent product, oxidised carboxy-dichlorofluorescein (carboxy-DCF). The intensity of fluorescence is proportional to intracellular ROS levels. MCF-7 cells (2 × 10^4/well) were seeded into 24-well plates in 1% FBS and allowed to attach overnight. Cells were treated with PhIP for 24 h and then treated with Carboxy-DCFDA (20 µL, 30 µM) in media containing 1% FBS (1 ml) and incubated for 30 min at 37 °C, washed with PBS and new media (1% FBS) was added. Fluorescent measurements (excitation at 485 nm and emission at 520 nm) were then taken from 10 min to 24 h using a fluorescence plate reader (BMG POLARstar Galaxy Labtech, Ortenberg, Germany). The concentration of DMSO (0.2%) was identical in all treatments and had no effect on ROS production at this concentration.

[12] = etoposide positive control (1.25 µM)

C[C@]12CC[C@@H]3c4ccc(O)cc4CC[C@H]3[C@@H]1CC[C@@H]2O [E2, Estradiol]
CYP1A2 mRNA expression vs vehicle control ([1]; 24 h, E2 1 µM): No significant change | CYP1A2 mRNA expression vs vehicle control ([2]; 24 h, E2 1 µM): No significant change | change in cell survival following treatment ([3]; Fig. 1b): No significant change | CYP1B1 mRNA expression vs vehicle control ([4]; 24 h, E2 1 µM, Fig. 2b): upregulated | change in cell survival following treatment ([5]; Fig. 1a): No significant change

COc1cc([C@@H]2c3cc4c(cc3[C@@H](O[C@@H]3O[C@@H]5CO[C@@H](C)O[C@H]5[C@H](O)[C@H]3O)[C@H]3COC(=O)[C@H]23)OCO4)cc(OC)c1O [Etoposide, reference compound]
Cytotoxicity (percent survival ± SD) [3, 12]: 83.7% ± 2.3 | Cytotoxicity (percent survival ± SD) [5, 12]: 81.7% ±1.4

C[C@]12CC[C@@H]3c4ccc(O)cc4C[C@@H](CCCCCCCCC[S+]([O-])CCCC(F)(F)C(F)(F)F)[C@H]3[C@@H]1CC[C@@H]2O (stereo partly drawn) [ICI, Fulvestrant, reference compound]
effect of ICI co-incubation on MN induction by etoposide ([6]; Fig. 1): not affected | effect of ER antagonist (ICI) on DNA damaging ability of PhIP ([6]; Fig. 1d): no change | effect of ICI on CYP2E1 expression (PhIP co-treatment) ([7]; ICI 182,780 1 µM, Fig. 4c): significantly blocked | effect of ICI co-incubation on MN induction by etoposide ([8]; Fig. 1): not affected | effect of ICI on E2-mediated genotoxicity ([8]; Fig. 1): attenuated | effect of ICI co-treatment on PhIP MN formation ([8]; p < 0.001, Fig. 1c): significantly attenuated | effect of ICI on PhIP upregulation of CYP1A2 mRNA [1]: unaffected | effect of concurrent ICI on PhIP-mediated induction of CYP1B1 [9]: in MCF-7 cells only | effect of ICI on PhIP upregulation of CYP1A2 mRNA [2]: unaffected | effect of ICI on PhIP-mediated STAT3 increase [10]: inhibited | effect of concurrent ICI on PhIP-mediated induction of CYP1B1 ([4]; 24 h, p = 0.05): significantly inhibited | effect of ICI co-treatment on E2-upregulated CYP1B1 expression ([4]; E2 1 µM, Fig. 2b): attenuated significantly

CCO [ethanol]
intracellular ROS levels [11]: Elevated | ethanol concentration at which CYP2E1 increase was significant ([7]; Fig. 6a): 50 to 100 mM | CYP2E1 expression ([7]; ethanol 10 to 100 mM, Fig. 6a): dose-dependent increase | effect of addition of ethanol on genotoxicity of etoposide ([8]; Fig. 7b): No change | MN induction ([8]; ethanol 50 mM, 24 h, Fig. 7b): did not significantly induce
